The text below walks through data of ChEMBL document CHEMBL3991601, “The target landscape of clinical kinase drugs” (Science, 2017).

The structures appear in SMILES notation. Activity calls are given as the source filed them.

Experiment [1] addresses Mitogen-activated protein kinase 7 (Homo sapiens, UniProt Q13164).
Experiment [2] concerns the target T1, Cyclin-G-associated kinase (Homo sapiens, UniProt O14976).
T1 sequence (O14976 whole entry): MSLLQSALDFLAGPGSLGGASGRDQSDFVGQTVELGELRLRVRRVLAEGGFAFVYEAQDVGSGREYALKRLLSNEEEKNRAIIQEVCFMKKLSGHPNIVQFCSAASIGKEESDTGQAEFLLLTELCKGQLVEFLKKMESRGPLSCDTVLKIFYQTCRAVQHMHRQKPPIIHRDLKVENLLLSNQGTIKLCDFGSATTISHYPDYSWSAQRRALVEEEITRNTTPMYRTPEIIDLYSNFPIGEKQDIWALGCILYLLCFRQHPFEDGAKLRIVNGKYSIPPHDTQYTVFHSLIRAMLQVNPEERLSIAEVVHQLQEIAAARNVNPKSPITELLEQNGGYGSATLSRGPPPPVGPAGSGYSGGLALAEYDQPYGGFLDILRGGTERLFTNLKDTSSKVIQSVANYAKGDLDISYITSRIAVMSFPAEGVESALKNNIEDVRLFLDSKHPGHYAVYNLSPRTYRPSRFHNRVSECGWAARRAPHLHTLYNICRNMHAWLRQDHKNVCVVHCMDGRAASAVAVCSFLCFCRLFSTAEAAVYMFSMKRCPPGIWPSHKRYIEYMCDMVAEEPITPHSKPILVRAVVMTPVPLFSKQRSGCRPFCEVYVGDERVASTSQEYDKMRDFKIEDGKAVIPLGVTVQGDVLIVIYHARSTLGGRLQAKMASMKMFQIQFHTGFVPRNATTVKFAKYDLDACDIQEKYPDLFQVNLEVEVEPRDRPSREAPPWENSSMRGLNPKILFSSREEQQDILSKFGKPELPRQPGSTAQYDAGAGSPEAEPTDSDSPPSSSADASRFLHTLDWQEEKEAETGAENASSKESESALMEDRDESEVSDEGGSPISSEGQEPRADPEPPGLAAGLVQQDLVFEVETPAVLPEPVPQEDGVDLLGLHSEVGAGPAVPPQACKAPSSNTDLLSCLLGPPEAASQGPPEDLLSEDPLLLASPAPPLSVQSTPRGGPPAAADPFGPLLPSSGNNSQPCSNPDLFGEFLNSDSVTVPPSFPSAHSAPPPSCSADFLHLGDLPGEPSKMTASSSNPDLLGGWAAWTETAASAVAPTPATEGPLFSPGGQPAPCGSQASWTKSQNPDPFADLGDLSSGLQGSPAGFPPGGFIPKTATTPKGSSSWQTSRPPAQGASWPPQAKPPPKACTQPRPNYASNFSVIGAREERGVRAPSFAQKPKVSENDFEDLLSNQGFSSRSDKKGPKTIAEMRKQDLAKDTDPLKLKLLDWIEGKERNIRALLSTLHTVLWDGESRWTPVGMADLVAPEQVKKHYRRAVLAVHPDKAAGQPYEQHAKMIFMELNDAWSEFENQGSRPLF

Experiment [3] deals with T2, Phosphatidylinositol 5-phosphate 4-kinase type-2 gamma (Homo sapiens, UniProt Q8TBX8).
T2 sequence (Q8TBX8 whole entry): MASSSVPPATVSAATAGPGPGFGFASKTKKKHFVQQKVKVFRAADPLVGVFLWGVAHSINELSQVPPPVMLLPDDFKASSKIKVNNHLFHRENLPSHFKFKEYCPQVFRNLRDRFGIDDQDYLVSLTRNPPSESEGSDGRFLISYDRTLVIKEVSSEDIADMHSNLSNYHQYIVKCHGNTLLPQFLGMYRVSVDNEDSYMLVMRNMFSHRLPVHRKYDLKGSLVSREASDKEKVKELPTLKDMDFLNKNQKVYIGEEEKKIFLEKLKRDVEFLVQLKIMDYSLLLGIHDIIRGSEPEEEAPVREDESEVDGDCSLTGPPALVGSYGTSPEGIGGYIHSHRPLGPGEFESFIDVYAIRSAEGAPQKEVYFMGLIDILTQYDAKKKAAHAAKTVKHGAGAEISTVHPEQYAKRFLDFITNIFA

Experiment [4] has as its target Adenylate kinase 2, mitochondrial (Homo sapiens, UniProt P54819).
Experiment [5] addresses T3, Probable ATP-dependent RNA helicase DDX6 (Homo sapiens, UniProt P26196).
T3 sequence (P26196 whole entry): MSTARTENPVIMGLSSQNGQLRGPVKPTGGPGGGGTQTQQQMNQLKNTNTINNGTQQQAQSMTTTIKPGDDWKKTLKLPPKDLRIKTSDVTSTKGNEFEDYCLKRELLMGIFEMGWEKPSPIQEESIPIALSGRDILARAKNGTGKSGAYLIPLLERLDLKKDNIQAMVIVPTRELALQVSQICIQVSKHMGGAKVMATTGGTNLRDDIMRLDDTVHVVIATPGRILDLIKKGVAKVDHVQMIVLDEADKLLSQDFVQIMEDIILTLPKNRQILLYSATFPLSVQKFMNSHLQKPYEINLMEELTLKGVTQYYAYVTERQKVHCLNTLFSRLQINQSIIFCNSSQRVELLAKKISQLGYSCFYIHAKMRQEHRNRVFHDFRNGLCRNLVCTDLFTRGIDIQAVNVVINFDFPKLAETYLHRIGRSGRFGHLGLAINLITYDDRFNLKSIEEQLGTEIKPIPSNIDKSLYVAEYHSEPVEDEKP

The next experiment has as its target Insulin receptor (Homo sapiens, UniProt P06213).
For experiment [6], the target named is T4, MAP kinase-activated protein kinase 5 (Homo sapiens, UniProt Q8IW41).
T4 sequence (Q8IW41 whole entry): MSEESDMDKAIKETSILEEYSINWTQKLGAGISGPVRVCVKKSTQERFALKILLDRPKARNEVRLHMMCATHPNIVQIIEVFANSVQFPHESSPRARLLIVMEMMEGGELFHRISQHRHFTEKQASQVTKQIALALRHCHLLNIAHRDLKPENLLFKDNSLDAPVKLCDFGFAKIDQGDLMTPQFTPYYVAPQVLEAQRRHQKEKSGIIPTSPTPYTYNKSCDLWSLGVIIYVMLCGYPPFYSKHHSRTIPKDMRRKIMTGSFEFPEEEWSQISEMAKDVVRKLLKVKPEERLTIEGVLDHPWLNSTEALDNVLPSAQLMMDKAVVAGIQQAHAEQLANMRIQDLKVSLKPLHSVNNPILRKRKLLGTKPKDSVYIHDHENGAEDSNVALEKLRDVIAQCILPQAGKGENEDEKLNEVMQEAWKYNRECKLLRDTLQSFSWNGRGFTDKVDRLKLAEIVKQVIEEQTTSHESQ

In experiment [7] the target is Ribosomal protein S6 kinase alpha-3 (Homo sapiens, UniProt P51812).
The target in another experiment is Ephrin type-A receptor 2 (Homo sapiens, UniProt P29317).
Further: in the data inactive means no Kd found up to 30 µM.

Chain of Ephrin type-A receptor 2 (P29317 whole entry): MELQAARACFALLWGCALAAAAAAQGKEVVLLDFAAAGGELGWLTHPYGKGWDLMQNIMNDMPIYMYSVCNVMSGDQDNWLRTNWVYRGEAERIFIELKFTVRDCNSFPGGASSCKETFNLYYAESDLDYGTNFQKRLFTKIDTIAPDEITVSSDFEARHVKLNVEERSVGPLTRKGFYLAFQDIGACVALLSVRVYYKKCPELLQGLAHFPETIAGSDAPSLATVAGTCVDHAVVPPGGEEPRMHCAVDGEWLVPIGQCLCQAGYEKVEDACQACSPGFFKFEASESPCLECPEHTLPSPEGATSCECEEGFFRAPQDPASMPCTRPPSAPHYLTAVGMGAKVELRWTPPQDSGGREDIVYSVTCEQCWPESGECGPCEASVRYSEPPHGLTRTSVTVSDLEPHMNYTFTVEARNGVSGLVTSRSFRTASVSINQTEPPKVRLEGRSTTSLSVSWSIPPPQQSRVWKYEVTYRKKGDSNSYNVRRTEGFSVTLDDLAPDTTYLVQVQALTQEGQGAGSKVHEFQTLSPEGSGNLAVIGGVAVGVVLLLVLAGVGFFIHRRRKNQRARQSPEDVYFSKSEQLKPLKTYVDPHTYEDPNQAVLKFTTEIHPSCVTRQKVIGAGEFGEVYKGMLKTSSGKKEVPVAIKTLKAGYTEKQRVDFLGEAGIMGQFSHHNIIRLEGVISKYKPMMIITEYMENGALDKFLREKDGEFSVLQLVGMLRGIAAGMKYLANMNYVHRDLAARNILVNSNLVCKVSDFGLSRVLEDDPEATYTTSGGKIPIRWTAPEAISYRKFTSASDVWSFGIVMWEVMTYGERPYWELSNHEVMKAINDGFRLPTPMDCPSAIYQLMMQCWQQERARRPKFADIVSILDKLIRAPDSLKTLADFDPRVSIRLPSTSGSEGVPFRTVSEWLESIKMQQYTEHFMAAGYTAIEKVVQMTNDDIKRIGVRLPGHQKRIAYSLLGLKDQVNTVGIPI
Chain of Ribosomal protein S6 kinase alpha-3 (P51812 whole entry): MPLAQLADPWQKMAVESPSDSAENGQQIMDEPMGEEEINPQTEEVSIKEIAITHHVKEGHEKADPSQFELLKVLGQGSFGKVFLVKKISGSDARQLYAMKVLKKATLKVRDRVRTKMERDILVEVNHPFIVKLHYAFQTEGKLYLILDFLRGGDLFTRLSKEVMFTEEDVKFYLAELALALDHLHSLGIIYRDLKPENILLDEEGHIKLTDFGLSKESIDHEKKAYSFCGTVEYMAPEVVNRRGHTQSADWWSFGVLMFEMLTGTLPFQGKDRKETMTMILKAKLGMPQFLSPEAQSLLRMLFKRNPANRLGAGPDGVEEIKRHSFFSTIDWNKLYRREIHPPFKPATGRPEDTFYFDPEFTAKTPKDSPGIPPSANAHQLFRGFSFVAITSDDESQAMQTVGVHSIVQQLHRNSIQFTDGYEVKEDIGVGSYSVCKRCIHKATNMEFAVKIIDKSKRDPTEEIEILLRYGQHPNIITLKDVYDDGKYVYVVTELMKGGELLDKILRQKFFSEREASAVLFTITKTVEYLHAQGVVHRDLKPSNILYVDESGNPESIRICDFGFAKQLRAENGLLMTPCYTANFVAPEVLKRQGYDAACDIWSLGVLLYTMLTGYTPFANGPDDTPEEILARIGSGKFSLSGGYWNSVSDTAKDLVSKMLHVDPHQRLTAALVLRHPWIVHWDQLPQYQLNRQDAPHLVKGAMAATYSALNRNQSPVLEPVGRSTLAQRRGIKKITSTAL
Chain of Mitogen-activated protein kinase 7 (Q13164 whole entry): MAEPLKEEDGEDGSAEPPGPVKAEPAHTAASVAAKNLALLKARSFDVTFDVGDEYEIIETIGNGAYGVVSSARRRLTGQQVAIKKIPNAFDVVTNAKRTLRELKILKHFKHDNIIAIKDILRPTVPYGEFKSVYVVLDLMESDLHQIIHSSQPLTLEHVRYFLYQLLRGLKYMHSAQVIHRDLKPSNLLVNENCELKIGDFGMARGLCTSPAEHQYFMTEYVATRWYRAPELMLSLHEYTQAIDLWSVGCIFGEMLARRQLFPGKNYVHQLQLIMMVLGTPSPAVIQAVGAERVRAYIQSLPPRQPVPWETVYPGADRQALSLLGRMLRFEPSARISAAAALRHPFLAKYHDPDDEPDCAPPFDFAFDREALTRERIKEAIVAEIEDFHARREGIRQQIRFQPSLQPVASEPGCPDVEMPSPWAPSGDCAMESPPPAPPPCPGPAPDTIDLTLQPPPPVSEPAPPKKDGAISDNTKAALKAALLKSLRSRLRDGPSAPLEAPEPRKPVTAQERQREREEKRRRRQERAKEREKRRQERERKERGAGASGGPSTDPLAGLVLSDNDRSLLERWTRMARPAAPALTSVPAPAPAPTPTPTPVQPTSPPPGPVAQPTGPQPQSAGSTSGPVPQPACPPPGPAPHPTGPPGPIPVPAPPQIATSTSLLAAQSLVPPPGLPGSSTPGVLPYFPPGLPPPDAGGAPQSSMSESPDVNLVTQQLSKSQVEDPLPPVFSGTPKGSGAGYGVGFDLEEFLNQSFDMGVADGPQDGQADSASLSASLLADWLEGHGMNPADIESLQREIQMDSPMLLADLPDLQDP
Chain of Insulin receptor (P06213 28-758 limits assumed): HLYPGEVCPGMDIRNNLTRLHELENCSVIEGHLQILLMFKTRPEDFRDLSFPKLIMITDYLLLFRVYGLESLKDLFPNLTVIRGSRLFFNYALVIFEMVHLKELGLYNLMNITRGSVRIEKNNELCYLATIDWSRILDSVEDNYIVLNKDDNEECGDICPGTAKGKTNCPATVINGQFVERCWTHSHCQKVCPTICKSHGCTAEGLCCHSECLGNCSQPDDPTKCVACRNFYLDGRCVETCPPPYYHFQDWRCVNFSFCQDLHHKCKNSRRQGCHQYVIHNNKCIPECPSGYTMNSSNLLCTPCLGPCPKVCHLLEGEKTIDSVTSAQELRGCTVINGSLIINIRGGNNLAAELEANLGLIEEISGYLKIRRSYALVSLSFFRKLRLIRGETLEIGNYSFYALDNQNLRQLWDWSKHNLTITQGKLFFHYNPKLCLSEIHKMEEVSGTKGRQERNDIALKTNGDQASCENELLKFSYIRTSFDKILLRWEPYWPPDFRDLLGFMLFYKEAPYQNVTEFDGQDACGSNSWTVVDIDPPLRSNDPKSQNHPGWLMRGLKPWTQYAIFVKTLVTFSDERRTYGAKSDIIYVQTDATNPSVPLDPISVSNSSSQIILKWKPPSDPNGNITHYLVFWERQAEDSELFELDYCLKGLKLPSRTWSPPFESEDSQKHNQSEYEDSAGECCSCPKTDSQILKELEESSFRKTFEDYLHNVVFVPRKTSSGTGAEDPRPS
Chain of Insulin receptor (P06213 763-1382 limits assumed): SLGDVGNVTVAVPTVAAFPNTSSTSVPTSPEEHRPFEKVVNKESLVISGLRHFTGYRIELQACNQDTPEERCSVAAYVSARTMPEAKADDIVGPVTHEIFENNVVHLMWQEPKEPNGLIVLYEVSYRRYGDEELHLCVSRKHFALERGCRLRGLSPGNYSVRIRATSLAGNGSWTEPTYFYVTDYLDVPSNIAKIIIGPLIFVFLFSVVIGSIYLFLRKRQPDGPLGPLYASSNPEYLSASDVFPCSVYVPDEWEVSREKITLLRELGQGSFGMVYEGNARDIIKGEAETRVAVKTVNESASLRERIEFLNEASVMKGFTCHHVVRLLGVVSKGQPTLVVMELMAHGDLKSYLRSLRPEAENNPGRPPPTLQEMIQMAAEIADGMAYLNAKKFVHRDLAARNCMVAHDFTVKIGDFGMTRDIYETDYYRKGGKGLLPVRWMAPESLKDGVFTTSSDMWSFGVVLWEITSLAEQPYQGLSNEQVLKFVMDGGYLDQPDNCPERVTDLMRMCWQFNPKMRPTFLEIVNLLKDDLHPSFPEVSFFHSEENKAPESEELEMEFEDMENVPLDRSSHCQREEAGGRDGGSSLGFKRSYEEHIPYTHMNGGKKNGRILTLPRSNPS

Turning to `Cc1nc(N)sc1-c1ccnc(Nc2ccc(N3CCOCC3)cc2)n1` [CYC-116], the Kd (commonly the concentration at which binding is half-saturated) was > 30 µM (inactive) in experiment [1]; 0.196 µM (active) in experiment [2]; 0.067 µM (active) in experiment [3]; > 30 µM (inactive) in [4]; > 30 µM (inactive) in experiment [5].

Regarding `Cc1cc(Nc2cc(N3CCN(C)CC3)nc(/C=C/c3ccccc3)n2)n[nH]1` [ENMD-2076], the Kd in experiment [1], in experiment [2], in experiment [3], in experiment [4] and in experiment [5] was > 30 µM (inactive) each time.

On to `O=C(Nc1cccc(Cl)c1)Nc1ncc(CCNc2ncnc3ccsc23)s1` [SNS-314], for which the Kd in experiment [2], in experiment [4] and in experiment [5] was > 30 µM (inactive) in each case.

As for `Nc1nc(N)c2nc(-c3cccc(O)c3)c(-c3cccc(O)c3)nc2n1` [TG100-115], the Kd in experiment [2], in experiment [4] and in experiment [5] was > 30 µM (inactive) each time.

Regarding `CN1CCN(c2ccc3nc(-c4c(N)c5c(F)cccc5[nH]c4=O)[nH]c3c2)CC1` [DOVITINIB], the Kd in experiment [4] and in experiment [5] was > 30 µM (inactive) each time.

With `O=C(O)[C@]1(Cc2cccc(Nc3nccs3)n2)CC[C@@H](Oc2cccc(Cl)c2F)CC1` [MK-5108], the Kd (in [1]; at Insulin receptor; in [6]; in experiment [2]; in experiment [7]; in experiment [3]) was > 30 µM (inactive) throughout. For the same molecule, the Kd in experiment [4] and in experiment [5] was > 30 µM (inactive) in each case.

For the molecule `COc1cc2nccc(Oc3ccc(NC(=O)Nc4cc(C)on4)c(Cl)c3)c2cc1OC` [TIVOZANIB], the Kd in experiment [1] was > 30 µM (inactive); on Insulin receptor, > 30 µM (inactive); on Ephrin type-A receptor 2, 0.147 µM (active); in [2] it was > 30 µM (inactive); in [7], > 30 µM (inactive); in experiment [3], > 30 µM (inactive). Also, the Kd in [4] and in experiment [5] was > 30 µM (inactive) each time.

Consider `CCc1cnn2c(NCc3ccc[n+]([O-])c3)cc(N3CCCC[C@H]3CCO)nc12` [DINACICLIB], for which the Kd (in experiment [1]; at Insulin receptor; at Ephrin type-A receptor 2; in [6]; in experiment [2]; in experiment [3]) was > 30 µM (inactive) throughout. The Kd in experiment [4] and in [5] was > 30 µM (inactive) throughout.

As to `OCCn1cc(-c2cnc3nnn(Cc4ccc5ncccc5c4)c3n2)cn1` [PF-04217903], the Kd (in experiment [1]; on Insulin receptor; on Ephrin type-A receptor 2; in experiment [6]; in experiment [2]; in experiment [3]) was > 30 µM (inactive) in each case. Further, the Kd in [4] and in [5] was > 30 µM (inactive) throughout.

Regarding `COCCNCc1ccc(-c2cc3nccc(Oc4ccc(NC(=S)NC(=O)Cc5ccc(F)cc5)cc4F)c3s2)nc1` [GLESATINIB], the Kd (in experiment [1]; at Insulin receptor; on Ephrin type-A receptor 2; in experiment [2]; in experiment [7]; in experiment [3]) was > 30 µM (inactive) each time. For the same molecule, the Kd in [4] and in experiment [5] was > 30 µM (inactive) throughout.

For `CCn1c(-c2nonc2N)nc2c(C#CC(C)(C)O)ncc(OC[C@H]3CCCNC3)c21` [GSK-690693], the Kd in experiment [4] and in [5] was > 30 µM (inactive) throughout.

Turning to `Cc1cn(-c2cc(NC(=O)c3ccc(C)c(Nc4nccc(-c5cccnc5)n4)c3)cc(C(F)(F)F)c2)cn1` [NILOTINIB], the Kd in experiment [4] and in experiment [5] was > 30 µM (inactive) each time.

`Cc1cc2c(F)c(Oc3ncnn4cc(OC[C@@H](C)OC(=O)[C@H](C)N)c(C)c34)ccc2[nH]1` [BRIVANIB ALANINATE]: the Kd (in experiment [1]; at Insulin receptor; on Ephrin type-A receptor 2; in experiment [2]; in [7]; in experiment [3]) was > 30 µM (inactive) each time. Also, the Kd in experiment [4] and in [5] was > 30 µM (inactive) throughout.

For the molecule `CO[C@H]1C[C@@H]2CC[C@@H](C)[C@@](O)(O2)C(=O)C(=O)N2CCCC[C@H]2C(=O)O[C@H]([C@H](C)C[C@@H]2CC[C@@H](OCCO)[C@H](OC)C2)CC(=O)[C@H](C)/C=C(\C)[C@@H](O)[C@@H](OC)C(=O)[C@H](C)C[C@H](C)/C=C/C=C/C=C/1C` [EVEROLIMUS], the Kd (in experiment [1]; at Insulin receptor; at Ephrin type-A receptor 2; in experiment [2]; in experiment [7]; in [3]) was > 30 µM (inactive) throughout. Besides, the Kd in experiment [4] and in experiment [5] was > 30 µM (inactive) in each case.

`CN(C)C(=O)c1cc2cnc(Nc3ccc(N4CCNCC4)cn3)nc2n1C1CCCC1` [RIBOCICLIB]: the Kd is > 30 µM (inactive) in [1]; > 30 µM (inactive) on Insulin receptor; > 30 µM (inactive) on Ephrin type-A receptor 2; 0.658 µM (active) in [2]; > 30 µM (inactive) in experiment [7]; > 30 µM (inactive) in experiment [3]. The Kd in experiment [4] and in experiment [5] was > 30 µM (inactive) in each case.
